The target in one experiment is HLA A*3001 (Homo sapiens, UniProt P04439, D140H/D185E/E176W/F33S/G80R/H175R/K168Q/R138E/R41S). Put plainly: biochemical. It is filed as binding.
A further experiment concerns the target HLA B*1503 (Homo sapiens, UniProt P01889, A329T/A93T/A95T/C349S/D201E/D98Y/E187L/E204Q/K202T/N87E/Q94N/R155S/R180L/S121R/S35A/V306I/V36M/Y140S/Y91S). Put plainly: biochemical. Type of experiment: binding.

Where a SMILES comes first, the peptide text is derived from it.

What is called IC50 is the concentration that gives 50% inhibition. Lower therefore signals greater potency.

HLA A*3001, sequence (P04439 25-365 limits assumed, stated change not applied): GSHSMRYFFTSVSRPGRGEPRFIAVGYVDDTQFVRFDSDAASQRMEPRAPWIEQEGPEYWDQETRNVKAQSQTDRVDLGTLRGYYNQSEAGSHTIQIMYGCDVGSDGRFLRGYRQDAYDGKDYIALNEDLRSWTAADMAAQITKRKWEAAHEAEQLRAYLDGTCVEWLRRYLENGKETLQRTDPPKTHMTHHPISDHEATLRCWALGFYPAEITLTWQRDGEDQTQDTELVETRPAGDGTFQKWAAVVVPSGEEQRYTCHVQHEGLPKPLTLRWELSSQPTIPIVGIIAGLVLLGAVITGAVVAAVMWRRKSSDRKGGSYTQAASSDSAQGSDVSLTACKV

As for `CC(C)[C@H](NC(=O)[C@H](CO)NC(=O)[C@H](C)NC(=O)[C@H](Cc1c[nH]cn1)NC(=O)[C@H](CC(N)=O)NC(=O)[C@H](Cc1ccccc1)NC(=O)[C@H](C)NC(=O)[C@@H](N)CCCCN)C(=O)N[C@@H](CCCCN)C(=O)O` [3102.0118] (H-KAFNHASVK-OH), the concentration for half-maximal inhibition (IC50) against HLA A*3001 turned out to be 35 nM.

Turning to `CC[C@H](C)[C@H](NC(=O)[C@H](CC(N)=O)NC(=O)[C@@H](NC(=O)[C@H](CC(N)=O)NC(=O)[C@H](CCCCN)NC(=O)[C@H](CO)NC(=O)[C@@H](N)CCCCN)[C@@H](C)CC)C(=O)N[C@@H](CCC(=O)O)C(=O)N[C@H](C(=O)O)C(C)C` [3102.0150] (H-KSKNINIEV-OH), at HLA A*3001, the IC50 was 0.32 nM. `CC(C)[C@H](NC(=O)[C@H](Cc1c[nH]cn1)NC(=O)[C@@H](NC(=O)[C@H](CC(=O)O)NC(=O)[C@H](CCCCN)NC(=O)[C@H](CO)NC(=O)[C@@H](N)CCCNC(=N)N)[C@@H](C)O)C(=O)N[C@@H](Cc1ccccc1)C(=O)N[C@@H](C)C(=O)O` [3102.0271] (H-RSKDTHVFA-OH) returned an IC50 on HLA A*3001 of 0.019 nM. Compound `NCCCC[C@H](NC(=O)[C@H](CS)NC(=O)[C@@H]1CCCN1C(=O)[C@H](CC(N)=O)NC(=O)[C@H](CCC(=O)O)NC(=O)[C@H](Cc1ccc(O)cc1)NC(=O)[C@H](CCCCN)NC(=O)[C@H](Cc1c[nH]c2ccccc12)NC(=O)[C@@H](N)CCCCN)C(=O)O` [3102.0113] (H-KWKYENPCK-OH) yielded an IC50 at HLA A*3001 of 15 nM. In turn, `CC[C@H](C)[C@H](NC(=O)[C@H](Cc1ccccc1)NC(=O)[C@@H]1CCCN1C(=O)[C@H](C)NC(=O)[C@H](CS)NC(=O)[C@H](Cc1c[nH]c2ccccc12)NC(=O)[C@H](CCCCN)NC(=O)[C@@H](NC(=O)[C@@H](N)CCSC)[C@@H](C)O)C(=O)O` [3102.0130] (H-MTKWCAPFI-OH) registered an IC50 on HLA A*3001 of 0.17 nM. `CC[C@H](C)[C@H](NC(=O)[C@H](CCCNC(=N)N)NC(=O)[C@H](CCC(N)=O)NC(=O)[C@@H](N)CCSC)C(=O)N[C@H](C(=O)N[C@@H](CO)C(=O)N[C@@H](CC(C)C)C(=O)N[C@@H](CO)C(=O)N[C@H](C(=O)O)C(C)C)[C@@H](C)CC` [3102.0069] (H-MQRIISLSV-OH): 8.8 nM corresponded to half-maximal inhibition on HLA A*3001 (IC50). The compound `CC(C)C[C@H](NC(=O)[C@H](Cc1ccc(O)cc1)NC(=O)[C@H](CCCNC(=N)N)NC(=O)[C@@H](NC(=O)[C@@H](N)CCCNC(=N)N)C(C)C)C(=O)N[C@H](C(=O)N[C@@H](CCCNC(=N)N)C(=O)N[C@@H](CC(N)=O)C(=O)N[C@@H](Cc1ccc(O)cc1)C(=O)O)[C@@H](C)O` [3102.0155] (H-RVRYLTRNY-OH) came in with a concentration for half-maximal inhibition (IC50) against HLA A*3001 of 5.6 nM. Take `CSCC[C@H](NC(=O)[C@@H](N)CCSC)C(=O)N[C@H](C(=O)N[C@@H](CO)C(=O)N[C@H](C(=O)N[C@@H](CCC(=O)O)C(=O)N[C@@H](CC(N)=O)C(=O)N[C@@H](CC(N)=O)C(=O)N[C@@H](CC(C)C)C(=O)O)[C@@H](C)O)C(C)C` [3102.1183] (H-MMVSTENNL-OH): the 50% inhibitory concentration (IC50) at HLA B*1503 was 11 nM. On HLA B*1503, `CC[C@H](C)[C@H](N)C(=O)N[C@@H](CCCCN)C(=O)N[C@@H](Cc1ccccc1)C(=O)N[C@@H](C)C(=O)N[C@@H](C)C(=O)NCC(=O)N[C@H](C(=O)N[C@H](C(=O)N[C@H](C(=O)O)[C@@H](C)CC)[C@@H](C)CC)[C@@H](C)CC` [3102.1198] (H-IKFAAGIII-OH) returned an IC50 of 16 nM. In the case of `CSCC[C@H](NC(=O)[C@H](C)NC(=O)[C@H](CC(C)C)NC(=O)[C@H](CO)NC(=O)[C@H](CCCCN)NC(=O)[C@@H](N)CCSC)C(=O)N[C@H](C(=O)N[C@@H](C)C(=O)N[C@@H](Cc1ccccc1)C(=O)O)[C@@H](C)O` [3102.1092] (H-MKSLAMTAF-OH), at HLA B*1503, the 50% inhibitory concentration (IC50) amounted to 0.18 nM. `CSCC[C@H](NC(=O)[C@@H](N)CCCCN)C(=O)N[C@@H](C)C(=O)N[C@@H](C)C(=O)N[C@@H](CC(=O)O)C(=O)N[C@@H](CCCNC(=N)N)C(=O)NCC(=O)N[C@@H](C)C(=O)N[C@@H](Cc1ccccc1)C(=O)O` [3102.1255] (H-KMAADRGAF-OH): at HLA B*1503, half-maximal inhibition (IC50) required 2.5 nM. On HLA B*1503, `CSCC[C@H](NC(=O)[C@@H](N)[C@@H](C)O)C(=O)N[C@H](C(=O)N[C@@H](CC(N)=O)C(=O)N[C@@H](CO)C(=O)N[C@@H](CC(C)C)C(=O)N[C@H](C(=O)N[C@@H](Cc1ccc(O)cc1)C(=O)N[C@@H](Cc1ccccc1)C(=O)O)[C@@H](C)O)C(C)C` [3102.1160] (H-TMVNSLTYF-OH) came in with a concentration for half-maximal inhibition (IC50) of 0.13 nM.

For the compound `CC[C@H](C)[C@H](NC(=O)[C@H](CC(N)=O)NC(=O)[C@H](CC(N)=O)NC(=O)[C@H](Cc1ccccc1)NC(=O)[C@@H]1CCCN1C(=O)[C@H](CCCCN)NC(=O)[C@H](CCCNC(=N)N)NC(=O)[C@H](CCC(N)=O)NC(=O)[C@@H](N)Cc1ccccc1)C(=O)O` [3102.1079] (H-FQRKPFNNI-OH), the half-maximal inhibitory concentration (IC50) against HLA B*1503 turned out to be 8.9 nM.

In turn, `CC(C)[C@H](N)C(=O)N[C@@H](CCC(=O)O)C(=O)N[C@H](C(=O)N[C@@H](CCC(=O)O)C(=O)N1CCC[C@H]1C(=O)NCC(=O)N[C@@H](CO)C(=O)N[C@@H](CO)C(=O)N[C@@H](Cc1ccccc1)C(=O)O)C(C)C` [3102.1119] (H-VEVEPGSSF-OH) returned an IC50 at HLA B*1503 of 1.7 nM. `CC(C)C[C@H](NC(=O)[C@@H](NC(=O)[C@H](CO)NC(=O)[C@H](C)NC(=O)[C@H](Cc1ccc(O)cc1)NC(=O)[C@H](CCC(N)=O)NC(=O)[C@H](C)N)[C@@H](C)O)C(=O)N[C@@H](CO)C(=O)N[C@H](C(=O)O)C(C)C` [3102.1314] (H-AQYASTLSV-OH): the IC50 against HLA B*1503 was determined as 0.16 nM.

In the case of `CC(C)[C@H](NC(=O)[C@H](CC(N)=O)NC(=O)[C@@H](N)CO)C(=O)N[C@H](C(=O)N[C@@H](CS)C(=O)NCC(=O)N[C@H](C(=O)N[C@H](C(=O)N[C@@H](Cc1ccccc1)C(=O)O)[C@@H](C)O)[C@@H](C)O)C(C)C` [3102.1319] (H-SNVVCGTTF-OH), the IC50 at HLA B*1503 came to 25 nM. Turning to `CSCC[C@H](NC(=O)[C@H](CCCCN)NC(=O)[C@H](CS)NC(=O)[C@H](CO)NC(=O)[C@H](CO)NC(=O)[C@H](CCC(N)=O)NC(=O)[C@@H](N)CCCNC(=N)N)C(=O)N[C@@H](C)C(=O)N[C@@H](CC(C)C)C(=O)O` [3102.1299] (H-RQSSCKMAL-OH), on HLA B*1503, the IC50 was 19 nM. Regarding `CC[C@H](C)[C@H](NC(=O)[C@H](CO)NC(=O)[C@@H]1CCCN1C(=O)[C@H](CC(C)C)NC(=O)[C@@H](NC(=O)[C@H](CCSC)NC(=O)[C@H](CCSC)NC(=O)[C@@H](N)CC(C)C)[C@@H](C)O)C(=O)N[C@@H](Cc1ccccc1)C(=O)O` [3102.1317] (H-LMMTLPSIF-OH), at HLA B*1503, the IC50 came to 0.15 nM.

At HLA B*1503, `CC(C)C[C@H](NC(=O)[C@H](Cc1ccccc1)NC(=O)[C@H](CO)NC(=O)[C@@H](N)CC(C)C)C(=O)N[C@@H](CO)C(=O)N[C@@H](CCCNC(=N)N)C(=O)N[C@H](C(=O)N[C@@H](Cc1ccccc1)C(=O)N[C@@H](Cc1ccccc1)C(=O)O)C(C)C` [3102.1115] (H-LSFLSRVFF-OH) had a half-inhibitory concentration (IC50) of 0.33 nM. At HLA B*1503, `CC(C)C[C@H](N)C(=O)N[C@@H](CCCCN)C(=O)N[C@@H](CO)C(=O)N[C@@H](CC(N)=O)C(=O)N[C@@H](C)C(=O)N[C@@H](CC(=O)O)C(=O)N[C@@H](Cc1c[nH]c2ccccc12)C(=O)N[C@@H](Cc1ccccc1)C(=O)N[C@@H](Cc1ccccc1)C(=O)O` [3102.1304] (H-LKSNADWFF-OH) came in with a half-inhibitory concentration (IC50) of 10 nM. Consider `CC[C@H](C)[C@H](N)C(=O)N[C@@H](CCC(=O)O)C(=O)N[C@H](C(=O)N[C@@H](CO)C(=O)N[C@@H](CO)C(=O)N[C@@H](CC(=O)O)C(=O)N[C@H](C(=O)N[C@@H](CO)C(=O)N[C@@H](Cc1ccccc1)C(=O)O)[C@@H](C)CC)C(C)C` [3102.1201] (H-IEVSSDISF-OH), for which the half-inhibitory concentration (IC50) against HLA B*1503 worked out at 9.7 nM.
